According to ChEMBL document CHEMBL1158839, “Dichotomins J and K, vasodilator cyclic peptides from Stellaria dichotoma” (J Nat Prod, 2005):
Active and inactive are the calls of the source. The rule behind the calls is not given here.

Assays:
Aorta [1] = assay: Vasorelaxant activity against norepinephrine-induced contraction in Wistar rat thoracic aorta at 30 uM; format: functional, tissue-based
Aorta [2] = assay: Vasorelaxant activity against norepinephrine-induced contraction in Wistar rat thoracic aorta at 100 uM; format: functional, tissue-based

Row | SMILES | Activity (Aorta [1]) | Activity (Aorta [2])
1 | CC[C@@H](C)[C@@H]1NC(=O)CNC(=O)[C@H](C)NC(=O)[C@H](Cc2ccc(O)cc2)NC(=O)[C@H](CC(C)C)NC(=O)[C@H](Cc2ccccc2)NC1=O | Active | 
2 | CC[C@@H](C)[C@@H]1NC(=O)[C@H](C(C)C)NC(=O)[C@H](Cc2ccc(O)cc2)NC(=O)[C@H](Cc2ccc(O)cc2)NC(=O)[C@@H]2CCCN2C(=O)[C@H]([C@H](C)CC)NC(=O)[C@H](C(C)C)NC(=O)[C@H](C)NC(=O)[C@@H]2CCCN2C1=O |  | Active
